From patent publication US20240101551A1, “CRYSTAL FORM AND SALT FORM OF BROMINE DOMAIN PROTEIN INHIBITOR AND PREPARATION METHOD THEREFOR” (CHIA TAI TIANQING PHARMACEUTICAL GROUP CO., LTD., priority 2020, published 2024)

Assay: Study on accelerated stability and long-term stability of the crystal form I
Type: physicochemical
Method: The crystal form I was placed under the accelerated condition (40±2° C., 75%±5% RH, and packaged) for 1, 2, 3 and 6 months, and under the long-term condition (25±2° C., 65%±5% RH, and packaged) for 3, 6, 9, 12, 18, 24 and 36 months to investigate its acceleration and long-term stability. The inner packaging material of the packaged sample was a double-layer low-density polyethylene bag, and the outer packaging material is a polyester/aluminum/polyethylene composite bag for medicine packaging. The samples after the storage were determined for properties, related substances (HPLC), crystal form (XRD), water content and content to investigate the stability of the product.

[1] = accelerated, 40° C. ± 2° C., 75% ± 5% RH, packaged, 1 month
[2] = accelerated, 40° C. ± 2° C., 75% ± 5% RH, packaged, 2 months
[3] = accelerated, 40° C. ± 2° C., 75% ± 5% RH, packaged, 3 months
[4] = accelerated, 40° C. ± 2° C., 75% ± 5% RH, packaged, 6 months
[5] = long-term, 25° C. ± 2° C., 60% ± 5% RH, packaged, 6 months

Q: Which results are given for `Cn1cc(-c2nc(N=S(C)(C)=O)ccc2Oc2ccc(F)cc2F)c2cc[nH]c2c1=O` [crystal form I]?
A: Crystal form change [1]: Unchanged; Impurity content [1]: 0.08%; Water content [1]: 0.03%; Crystal form change [2]: Unchanged; Impurity content [2]: 0.08%; Water content [2]: 0.03%; Crystal form change [3]: Unchanged; Impurity content [3]: 0.08%; Water content [3]: 0.03%; Crystal form change [4]: Unchanged; Impurity content [4]: 0.08%; Water content [4]: 0.03%; Stability (conclusion) (influencing factors, accelerated and long-term conditions): good stability; Crystal form change (long-term, 25° C. ± 2° C., 60% ± 5% RH, packaged, 3 months): Unchanged; Crystal form change [5]: Unchanged; Impurity content [5]: 0.08%; Impurity content (starting crystal form I): 0.05%; Water content (starting crystal form I): 0.02%
